Earlier results on one substance are cited in US20190320688A1, “COMPOSITIONS FOR PREVENTING AND RELIEVING HANGOVER & LIVER DAMAGE WHICH OCCUR DUE TO ALCOHOL CONSUMPTION” (priority 2018, published 2019).

The conditions of the data set: biological activities listed in background table.

Take Methylcurcumin: the Activity entry is on record as “L. amazonensis”.
